From PubChem BioAssay (NCI)
“And” between values parts separate entries of the source, which are not always exact repeats. Equal values may be shown once.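 Exposure lasted 48 hours, with cells grown in 96-well plates and compounds tested at five concentrations. The concentration for 50% growth inhibition is given as GI50. TGI is the concentration that stops growth completely.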

Assays:
Test in all cases: NCI anticancer screen, dose series, 48 h
[1] = tested on: OVCAR-3 ovarian
[2] = tested on: MOLT-4 leukemia
[3] = tested on: T-47D breast
[4] = tested on: NCI-H460 lung
[5] = tested on: UACC-257 melanoma
[6] = tested on: EKVX NSCLC
[7] = tested on: SW-620 colon
[8] = tested on: SK-MEL-28 melanoma
[9] = tested on: M14 melanoma
[10] = tested on: MDA-MB-231 breast

SMILES	GI50 [1]	TGI [1]	GI50 [2]	TGI [2]	GI50 [3]	TGI [3]	GI50 [4]	TGI [4]	GI50 [5]	TGI [5]	GI50 [6]	TGI [6]	GI50 [7]	TGI [7]	GI50 [8]	TGI [8]	GI50 [9]	TGI [9]	GI50 [10]	TGI [10]
COC(=O)Nc1nc2ccc(S(=O)(=O)c3ccc(NC(=O)Nc4cc(C(F)(F)F)ccc4F)cc3)cc2[nH]1	> 25 µM	> 25 µM	> 25 µM	> 25 µM	> 25 µM	> 25 µM	> 25 µM	> 25 µM	> 25 µM	> 25 µM	> 25 µM	> 25 µM	> 25 µM	> 25 µM	> 25 µM	> 25 µM	> 25 µM	> 25 µM	> 25 µM	> 25 µM
CN(C)c1ncnc2c1ccn2C1OC(CO)C(O)C1O (configuration not stated)	0.938 µM	> 34.6 µM	0.278 µM	1.95 µM	0.0621 µM	1.61 µM	4.19 µM	> 100 µM	> 100 µM	> 100 µM	3.98 µM	> 92.3 µM	2.55 µM	> 100 µM	> 100 µM	> 100 µM	16.1 µM	> 100 µM	1.82 µM	5.96 µM
CCCCN(CCCC)CCC(O)c1cc2ccc(C(F)(F)F)cc2c2cc(C(F)(F)F)ccc12 (configuration not stated)	2.89 µM	7.55 µM	2.67 µM	6.66 µM	3.09 µM	12.9 µM	1.84 µM	4.09 µM	2.15 µM	5.96 µM	9.3 µM	26.8 µM	1.76 µM	5.13 µM	2.21 µM	4.23 µM	1.82 µM	3.77 µM	1.33 µM	3.16 µM
CCCC(CCC)C(=O)OCC1(CO)C/C(=C\c2ccc(C(F)(F)F)cc2)C(=O)O1 (configuration not stated)	19.8 µM	36.1 µM	14.3 µM	31.9 µM	14.7 µM	29.4 µM	3.04 µM	21.7 µM	18.1 µM	33.4 µM	11 µM	27.2 µM	8.64 µM	21.8 µM	15.5 µM	29.2 µM	10.7 µM	23.2 µM	7.66 µM	22.9 µM
CCC(=O)c1c(C(F)(F)F)n([O-])c2ccccc2[n+]1=O	1.74 µM	6.35 µM	0.577 µM	> 100 µM	2.27 µM	31.1 µM	0.695 µM	2.6 µM	10.8 µM	35.3 µM	2 µM	7.32 µM	2.65 µM	17.4 µM	8.84 µM	44.6 µM	1.7 µM	6.19 µM	2.23 µM	7.93 µM
CC1=NN(C(=O)c2nn(-c3ccc(Cl)cc3)cc2O)C(=O)C1	1.34 µM	> 27.9 µM	1.24 µM	> 100 µM	2.87 µM	> 100 µM	0.41 µM	> 52.7 µM	6.27 µM	28.9 µM	1.93 µM	> 100 µM	4.55 µM	> 100 µM	9.13 µM	> 100 µM	2.8 µM	> 53.5 µM	2.75 µM	> 100 µM
C=C1C(=O)O[C@H]2[C@H]1CC/C(CNC(=O)/C=C/c1ccc(Cl)cc1Cl)=C\CC[C@@]1(C)O[C@@H]21	0.434 µM	1.57 µM	0.275 µM	1.58 µM	1.18 µM	3.45 µM	1.76 µM	3.52 µM	1.21 µM	2.58 µM	1.55 µM	3.1 µM	1.28 µM	2.68 µM	1.32 µM	2.93 µM	1.44 µM	3.37 µM	1.35 µM	3.18 µM
COc1ccc2c(c1)C=C1CSCC3=Cc4cc(OC)ccc4OC13O2	0.295 µM	0.884 µM	0.486 µM	> 100 µM	0.418 µM	> 100 µM	0.387 µM	> 100 µM	> 100 µM	> 100 µM	3.14 µM	> 100 µM	0.373 µM	> 100 µM	> 28.2 µM	> 100 µM	0.323 µM	> 100 µM	0.568 µM	> 100 µM
Cc1c(C(N)=O)sc2c1c(=O)n(Cc1ccccc1)c1nnc(S(=O)(=O)CC(=O)Nc3ccc(Cl)cc3)n21	5.27 µM	18 µM	15.6 µM	46.8 µM	3.89 µM	14.3 µM	2.87 µM	7.64 µM	2.68 µM	7.88 µM	5.89 µM	27.4 µM	4.87 µM	20.4 µM	2.98 µM	8.45 µM	5.3 µM	21.2 µM	4.24 µM	18.5 µM
CN(CCCN(C)CCC1CCCCC1)CCC1CCCCC1	3.95 µM	15 µM	2.4 µM	7.3 µM	1.64 µM	4.15 µM	2.65 µM	6.7 µM	0.291 µM	0.876 µM	2.24 µM	11.1 µM	2.28 µM	6.84 µM	1.91 µM	3.41 µM	1.27 µM	2.59 µM	1.38 µM	4.68 µM
CCN(CC)CCC(=O)O[C@H]1CC[C@H](CC(C)[C@H]2CC(=O)C(C)C=C(C)[C@H](OC(=O)CCN(CC)CC)C(OC)C(=O)[C@@H](C)CC(C)/C=C/C=C/C=C(C)C(OC)CC3CC[C@H](C)[C@](O)(O3)C(=O)C(=O)N3CCCCC3C(=O)O2)CC1OC (some centres not stated)	0.0165 µM and 0.00456 µM	2.27 µM and 2.19 µM	0.0255 µM	5.39 µM and 1.32 µM	0.0267 µM	4.12 µM	0.292 µM and 1.34 µM	3.48 µM and 2.69 µM	–	2.54 µM and 2.72 µM	0.00704 µM	> 10 µM	1.37 µM	3.66 µM and 2 µM	–	1.95 µM	0.871 µM	2.62 µM and 2.2 µM	1.86 µM	8.14 µM and 1.74 µM
O=C1COCCN1c1ccc(NCc2cn(C(=O)c3ccc(Cl)cc3)c3ccccc23)cc1	1.21 µM	12.5 µM	5.66 µM	47.8 µM	0.264 µM	83.8 µM	0.268 µM	12.7 µM	0.276 µM	1.7 µM	17.2 µM	> 100 µM	2.23 µM	> 100 µM	17.8 µM	80.9 µM	7.92 µM	> 100 µM	4.61 µM	22.9 µM
CC(=O)n1c(-c2ccc(Cl)c(Cl)c2)cn(-c2ccc(Cl)cc2)c1=O	51.2 µM	> 100 µM	23.3 µM	90.2 µM	19.3 µM	49.5 µM	30.8 µM	> 100 µM	22.4 µM	66.8 µM	12.5 µM	34.6 µM	30.9 µM	> 100 µM	> 100 µM	> 100 µM	27.6 µM	> 100 µM	17.6 µM	62.6 µM
O=c1[nH]nc(-c2ccccc2)c2c(-c3ccccc3)onc12	0.358 µM	1.44 µM	0.564 µM	> 65.3 µM	0.595 µM	> 46 µM	0.383 µM	> 62.6 µM	6.7 µM	> 100 µM	1.25 µM	> 100 µM	0.319 µM	> 100 µM	0.793 µM	> 100 µM	0.329 µM	> 100 µM	17.7 µM	> 100 µM
O=C(NN1C(=O)CSC12CCC(c1ccccc1)CC2)c1[nH]c2ccc(F)cc2c1-c1ccccc1 (configuration not stated)	17.1 µM	31.5 µM	12.2 µM	33.7 µM	33.5 µM	> 100 µM	19.6 µM	47.7 µM	19.3 µM	35.6 µM	26.7 µM	62 µM	17.4 µM	36.8 µM	18.1 µM	34.3 µM	20.1 µM	35.6 µM	16.9 µM	31.6 µM
CNC(=O)c1cncc(/C=C/c2c(Cl)cccc2Cl)c1	20.9 µM	> 25 µM	> 21.9 µM	> 25 µM	> 18.1 µM	> 25 µM	> 25 µM	> 25 µM	24.7 µM	> 25 µM	> 25 µM	> 25 µM	> 25 µM	> 25 µM	> 25 µM	> 25 µM	> 23.4 µM	> 25 µM	> 15.8 µM	> 25 µM
NCCSC(C[N+](=O)[O-])c1ccccc1Cl (configuration not stated)	1.88 µM	3.5 µM	10.2 µM	> 25.8 µM	2.23 µM	9.09 µM	11.8 µM	32 µM	1.91 µM	4.31 µM	16.9 µM	41.6 µM	1.82 µM	4.05 µM	2.08 µM	4.6 µM	2.14 µM	6.01 µM	12 µM	25.8 µM
CCc1c2c(nc3ccc(OCc4ccc(B5OC(C)(C)C(C)(C)O5)cc4)cc13)-c1cc3c(c(=O)n1C2)COC(=O)[C@]3(O)CC	0.215 µM	> 100 µM	< 0.01 µM	> 100 µM	< 0.01 µM	> 100 µM	0.0125 µM	1.24 µM	0.0477 µM	1.26 µM	0.431 µM	> 100 µM	0.0258 µM	> 100 µM	0.604 µM	> 100 µM	0.0141 µM	–	1.1 µM	> 100 µM
Cc1ccc([N+](=O)[O-])c2c(NCCC[N+](C)(C)[O-])ccnc12	–	> 100 µM	–	> 100 µM	–	> 100 µM	–	80.1 µM	–	69.8 µM	–	> 100 µM	–	> 100 µM	–	> 100 µM	–	> 100 µM	–	> 100 µM
Clc1ccc(/C=C/c2nc(Cl)c(-c3ccc(Cl)cc3)c(Cl)n2)cc1	–	> 100 µM	–	> 100 µM	–	> 100 µM	–	> 100 µM	–	> 100 µM	–	> 100 µM	–	> 100 µM	–	> 100 µM	–	> 100 µM	–	> 100 µM
CCc1nc(N)nc(N)c1C#CC(C)c1cc(-c2ccnc(C)c2)c2oc(C)nc2c1 (configuration not stated)	0.0893 µM	15 µM	< 0.01 µM	8.81 µM	0.283 µM	8.5 µM	< 0.01 µM	4.26 µM	–	13.2 µM	0.451 µM	15 µM	< 0.01 µM	13.2 µM	0.106 µM	14.3 µM	< 0.01 µM	5.69 µM	0.527 µM	16.9 µM
COc1cc2nncc(SCc3ccc(Cl)c(Cl)c3)c2cc1OC	–	> 100 µM	–	> 100 µM	–	> 100 µM	–	> 100 µM	–	> 100 µM	–	> 100 µM	–	> 100 µM	–	> 100 µM	–	> 100 µM	–	> 100 µM
Nc1ccccc1C#C/C=C\C#Cc1ccccc1F	2.84 µM	14.7 µM	2.13 µM	> 100 µM	8.05 µM	> 100 µM	6.17 µM	21.2 µM	15.7 µM	47.5 µM	10.8 µM	53.2 µM	16 µM	> 100 µM	18 µM	75.1 µM	5.39 µM	18.3 µM	10.1 µM	25.4 µM
O=C1c2ccn(CCCCN(CCO)CCO)c2C(=O)c2c1c(O)c1ccccc1c2O	22.2 µM	> 100 µM	2.55 µM	–	22.9 µM	> 69.6 µM	7.1 µM	26.1 µM	4.83 µM	24.4 µM	23.3 µM	> 75.7 µM	3.12 µM	14.7 µM	5.05 µM	> 100 µM	2.37 µM	–	1.89 µM	3.97 µM
COc1cc2c3cc1Oc1c(OC)c(OC)cc4c1C(Cc1ccc(cc1)Oc1cc(ccc1O)CC3N(C)CC2)N(C)CC4 (configuration not stated)	–	29.1 µM and 62.8 µM	–	30.8 µM and 36.8 µM	–	26.8 µM	14.5 µM and 4.72 µM	32.6 µM and 17.3 µM	13.3 µM and 1.96 µM	26.7 µM and 4.29 µM	–	> 100 µM and 33.3 µM	–	22.6 µM and 45.8 µM	12.9 µM and 5.81 µM	25.9 µM and 26 µM	–	4.27 µM and 4.79 µM	–	24.5 µM
